“And” between values parts separate entries of the source, which are not always exact repeats. Equal values may be shown once.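 1) Cells in 96-well plates. 2) Compound, 48 h, 5 concentrations. 3) Linear interpolation between surrounding doses. 4) Unreached endpoint = highest concentration. The concentration for 50% growth inhibition is given as GI50. TGI denotes the concentration required for complete inhibition of growth.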
Tests used:
Assay in all cases: NCI tumour cell line growth inhibition, 48 h
P388/ADR leukemia = test system: P388/ADR leukemia
XF 498 CNS = test system: XF 498 CNS
P388 leukemia = test system: P388 leukemia
HOP-18 NSCLC = test system: HOP-18 NSCLC
DMS 273 small cell lung = test system: DMS 273 small cell lung
M19-MEL melanoma = test system: M19-MEL melanoma
SNB-78 CNS = test system: SNB-78 CNS
KM20L2 colon = test system: KM20L2 colon
LXFL 529 NSCLC = test system: LXFL 529 NSCLC
MDA-N = test system: MDA-N
RXF-631 renal = test system: RXF-631 renal

Compound | TGI (XF 498 CNS) [µM] | TGI (HOP-18 NSCLC) [µM] | TGI (DMS 273 small cell lung) | TGI (M19-MEL melanoma) [µM] | TGI (SNB-78 CNS) [µM] | TGI (KM20L2 colon) [µM] | TGI (LXFL 529 NSCLC) [µM] | TGI (MDA-N) | also measured
COc1cc(O)c2c(c1)C(=O)c1cc3c(c(O)c1C2=O)C(OC1OC(C)C(O)C(O)C1OC)C(OC)C(C)(O)C3=O (configuration not stated) | 7.13 | 15.4 | 3.85 µM | 1.83 | 16.1 | 6 | – | – | TGI (P388/ADR leukemia): 59.6 µM; TGI (P388 leukemia): 25.2 µM
CCOC(=O)/C(C#N)=C1/C(O)=C(C(=O)OC)C(C(=O)OC)=C1C(=O)OC | – | – | > 100 µM | > 100 | – | > 100 | > 100 | – | –
COC1CC(NC(=O)C(F)(F)F)C(OC(C)=O)C(C)O1 (configuration not stated) | – | – | – | – | – | – | – | > 100 µM | –
O=c1c2ccccc2c2ccccc2c(=O)n1Cc1ccc2c(c1)OCO2 | – | – | – | – | – | – | – | 28.7 µM | –
CC1=C[P+](Cc2ccccc2)(c2ccccc2)CC1 (configuration not stated) | 78.2 | > 100 | > 100 µM | > 100 | > 100 | > 100 | > 100 | – | GI50 (XF 498 CNS): 25 µM
O=S(O)CCCSSc1ccccc1 | > 100 | > 100 | > 100 µM | > 100 | > 100 | > 100 | > 100 | – | –
Cc1cc2c(c3oc(C4(C)OC4C4OC4C)cc(=O)c13)C(=O)c1c(O)c(C3CC(C)(N(C)C)C(O)C(C)O3)cc(C3CC(N(C)C)C(O)C(C)O3)c1C2=O (configuration not stated) | 0.00068 | 0.00334 | 0.000406 µM and 0.00252 µM | – | – | – | 0.0117 | 0.000228 µM | TGI (RXF-631 renal): 0.123 µM; GI50 (XF 498 CNS): 0.000187 µM; GI50 (SNB-78 CNS): 0.000187 µM
N#CCC(=O)N/N=C(\C(=O)Nc1ccc(Cl)c(Cl)c1)C1CN(c2ccccc2)N=C1N (configuration not stated) | – | > 100 | > 100 µM | > 100 | > 100 | > 100 | > 100 | – | –
COc1ccc2nc3ccccc3c(NCCCN(C)CCCl)c2c1 | 0.77 | – | 1.36 µM | 1.9 | 2.27 | 2.5 | 1.53 | 2.02 µM | TGI (RXF-631 renal): 2.15 µM
COc1ccc2c(c1OC)OCC(CN(C)C)C2=O (configuration not stated) | – | – | – | – | – | – | – | 32.4 µM | –
CC[C@@H]1C[C@H]2CC3c4[nH]c5ccc(O)cc5c4CCN(C2)C31 | > 100 | > 100 | > 100 µM | > 100 | > 100 | > 100 | > 100 | – | TGI (RXF-631 renal): > 100 µM
CSCCOC(=O)C(=[N+]=[N-])c1ccc([N+](=O)[O-])cc1 | > 100 | – | > 100 µM | – | – | > 100 | > 100 | – | –
CCC[CH2][Sn]1([CH2]CCC)[O]C(=O)c2ccc(C)cc2[O]1 | – | 2.19 | 2.62 µM | 1.33 | 2.34 | 2.46 | 0.372 | – | GI50 (LXFL 529 NSCLC): 0.158 µM; GI50 (RXF-631 renal): 0.138 µM; TGI (RXF-631 renal): 0.32 µM; GI50 (HOP-18 NSCLC): 1.01 µM; GI50 (DMS 273 small cell lung): 0.55 µM; GI50 (M19-MEL melanoma): 0.322 µM; GI50 (SNB-78 CNS): 0.526 µM; GI50 (KM20L2 colon): 1.21 µM
COc1ccc(OC(C(=O)O)c2ccccc2)c2c1CCCC2=O (configuration not stated) | > 100 | > 100 | > 100 µM | > 100 | > 100 | > 100 | > 100 | – | TGI (RXF-631 renal): > 100 µM
CNC(=O)c1cccc2c(Nc3ccc(NS(C)(=O)=O)cc3OC)c3cccc(C)c3nc12 | 3.25 | 3.36 | 1.69 µM | 8.54 | – | 3.72 | 6.74 | – | TGI (P388/ADR leukemia): 1.07 µM; TGI (P388 leukemia): < 0.0384 µM
CC(C)(C)OC(=O)NC(CO)c1cccc(OCc2ccccc2)c1 (configuration not stated) | > 100 | > 100 | > 100 µM | > 100 | > 100 | > 100 | > 100 | – | –
N#CS.N=C=S.N=C=S.[Cu+2].[NH2-].[NH2-].[NH2-].[NH2-].c1ccc2ncccc2c1 | – | – | – | – | – | – | – | > 100 µM | GI50 (MDA-N): > 100 µM
CC1(C)CCC(C)(C)c2c1ccc(O)c2Cc1c(O)ccc2c1C(C)(C)CCC2(C)C | – | – | – | – | – | – | – | 3.73 µM | –
CN(C)CCOC(c1ccccc1)c1ccccc1 | – | – | – | – | – | – | – | 50.1 µM and > 100 µM | GI50 (MDA-N): 29.4 µM

Compound | TGI (XF 498 CNS) [µM] | TGI (HOP-18 NSCLC) [µM] | TGI (DMS 273 small cell lung) | TGI (M19-MEL melanoma) [µM] | TGI (SNB-78 CNS) [µM] | TGI (KM20L2 colon) [µM] | TGI (LXFL 529 NSCLC) [µM] | TGI (MDA-N) | also measured
Cc1nn(-c2nc3ccccc3s2)c2c1C(=O)c1ccccc1-2 | – | > 100 | > 100 µM | > 100 | > 100 | > 100 | > 100 | – | –
OC1C2CCC1C1C3C=CC(C3)C21 (configuration not stated) | > 100 | > 100 | > 100 µM | > 100 | > 100 | > 100 | > 100 | – | –
COc1ccc(CNc2nc3cc(N)cc(N)c3nc2-c2ccccc2)cc1 | – | – | – | – | – | – | – | 27.7 µM | GI50 (MDA-N): 14.2 µM
CSc1ncnc2c1ncn2C1OC(CO)C(O)OC1O (configuration not stated) | – | – | – | – | – | – | – | 27.7 µM | –
O=c1oc2ccc(-n3c(=O)c4ccccc4c4ccccc4c3=O)cc2c2ccccc12 | – | – | – | – | – | – | – | > 100 µM | –
CCOC(=O)C(C)(C)C(O)C(C)C (configuration not stated) | – | – | – | – | – | – | – | > 100 µM | –
C[n+]1ccc(-c2c3nc(c(-c4cc[n+](C)cc4)c4ccc([n-]4)c(-c4cc[n+](C)cc4)c4nc(c(-c5cc[n+](C)cc5)c5ccc2[n-]5)C=C4)C=C3)cc1.[I-].[Zn+2] | – | 41.3 | > 100 µM | 28.3 | 69.6 | > 100 | 43 | – | GI50 (LXFL 529 NSCLC): 20.1 µM; GI50 (RXF-631 renal): 17.1 µM; TGI (RXF-631 renal): 46.8 µM; GI50 (HOP-18 NSCLC): 16.9 µM; GI50 (DMS 273 small cell lung): 33.7 µM; GI50 (M19-MEL melanoma): 10.3 µM; GI50 (SNB-78 CNS): 23.3 µM; GI50 (KM20L2 colon): 23.1 µM
c1ccc2c(c1)[nH]c1c2nc2ncccn21 | > 100 | – | > 100 µM | > 100 | > 100 | > 100 | > 100 | – | TGI (RXF-631 renal): > 100 µM
COc1ccc(OC)c(-c2cc(=O)c3c(OC)c(OC)c(OC)c(OC)c3o2)c1 | – | – | – | – | – | – | – | > 100 µM | –
O=C(NCC(O)CNC(=O)C(F)(F)F)C(F)(F)F | > 100 | > 100 | > 100 µM | > 100 | > 100 | > 100 | > 100 | – | –
O=C1c2ccccc2C(=O)N1C/C=C/CO | – | > 100 | > 100 µM | > 100 | > 100 | > 100 | > 100 | – | –
N#C/C(=C/Sc1ccccc1)C(=O)O | > 100 | > 100 | 72.6 µM | 74 | 59.5 | 91.2 | > 100 | – | –
COc1cc2c(cc1OC)C(=O)Cc1ccc(OC)c(OC)c1CN(C)CC2 | > 100 | > 100 | > 100 µM | > 100 | > 100 | > 100 | > 100 | – | TGI (RXF-631 renal): > 100 µM
O=c1oc(=O)c2oc3ccccc3oc1=2 | > 100 | > 100 | > 100 µM | > 100 | – | > 100 | > 100 | – | –
Clc1cc2n[se]nc2cc1Cl | > 100 | > 100 | > 100 µM | > 100 | > 100 | > 100 | > 100 | – | TGI (RXF-631 renal): > 100 µM
CCOC(=O)c1ccc(NC(=O)SCCC(=O)O)cc1 | – | – | > 100 µM | – | > 100 | > 100 | > 100 | – | –
O=C(COC(=O)c1cccc2c(=O)c3ccccc3[nH]c12)Nc1ccccc1 | 74.4 | > 100 | > 100 µM | > 100 | – | > 100 | > 100 | – | TGI (RXF-631 renal): 99 µM
CCOc1ccccc1NC(=O)CCc1n[nH]c(=S)o1 | > 100 | – | > 100 µM | > 100 | > 100 | > 100 | > 100 | – | –
Cc1nn(C)cc1P(=S)(c1ccccc1)c1ccccc1 | > 100 | > 100 | > 100 µM | > 100 | > 100 | > 100 | > 100 | – | –

From PubChem BioAssay (NCI)
